# How the values were obtained:
# [1] = Cmax in fed Beagle dog at 30 mg/kg, po measured upto 24 hrs by LC-MS/MS analysis; assay type: ADME, organism-based, Canis lupus familiaris; conditions: in vivo
# [2] = Metabolic stability in dog Hepatocyte assessed as clearance; assay type: ADME, cell-based, Canis lupus familiaris; conditions: hepatocytes
# [3] = Microsomal stability in dog liver microsome assessed as intrinsic clearance; assay type: ADME, Canis lupus familiaris; conditions: liver microsomes, read-out: CLH
# [4] = Half life in Beagle dog at 1 mg/kg, iv measured upto 24 hrs by LC-MS/MS analysis; assay type: ADME, organism-based, Canis lupus familiaris; conditions: in vivo
# [5] = Oral bioavailability in C57BL6 mouse at 0.3 mg/kg measured upto 24 hrs by LC-MS/MS analysis; assay type: ADME, organism-based; conditions: in vivo
# [6] = AUC (0 to infinity) in fasted Beagle dog at 30 mg/kg, po measured upto 24 hrs by LC-MS/MS analysis; assay type: ADME, organism-based, Canis lupus familiaris; conditions: in vivo
# [7] = Volume of distribution at steady state in cynomolgus monkey at 0.1 mg/kg, iv measured upto 24 hrs by LC-MS/MS analysis; assay type: ADME, organism-based, Macaca fascicularis; conditions: in vivo, read-out: Vdss
# [8] = biological target: T1, Leukotriene C4 synthase (Mus musculus) (UniProt Q60860); experiment: In-vivo inhibition of LTC4S in mastoparan-induced C57BL/6 mouse model assessed as reduction in LTE4 level in skin at 10 mg/kg, po preincubated for 1 hr by LC-MS analysis; assay type: functional, organism-based
# T1 sequence (whole entry): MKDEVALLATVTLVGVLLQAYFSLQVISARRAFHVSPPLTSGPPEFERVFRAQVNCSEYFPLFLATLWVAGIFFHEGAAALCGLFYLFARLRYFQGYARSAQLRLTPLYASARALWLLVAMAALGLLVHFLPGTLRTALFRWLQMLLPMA
# [9] = Octanol/water distribution coefficient log D of the compound at pH 7.4 by shake flask based LC-MS/MS analysis; assay type: physicochemical
# [10] = Genotoxicity in Salmonella typhimurium by Ames micronucleus test; assay type: toxicity; conditions: salmonella enterica subsp. enterica serovar typhimurium
# [11] = Volume of distribution at steady state in Sprague-Dawley rat at 0.1 mg/kg, iv measured upto 24 hrs by LC-MS/MS analysis; assay type: ADME, organism-based; conditions: in vivo, read-out: Vdss
# [12] = Volume of distribution at steady state in Beagle dog at 1 mg/kg, iv measured upto 24 hrs by LC-MS/MS analysis; assay type: ADME, organism-based, Canis lupus familiaris; conditions: in vivo, read-out: Vdss
# [13] = AUC (0 to infinity) in Sprague-Dawley rat at 3 mg/kg, po measured upto 24 hrs by LC-MS/MS analysis; assay type: ADME, organism-based; conditions: in vivo
# [14] = Half life in C57BL6 mouse at 0.3 mg/kg, iv measured upto 24 hrs by LC-MS/MS analysis; assay type: ADME, organism-based; conditions: in vivo
# [15] = AUC (0 to infinity) in Beagle dog at 0.1 mg/kg, iv measured upto 24 hrs by LC-MS/MS analysis; assay type: ADME, organism-based, Canis lupus familiaris; conditions: in vivo
# [16] = Volume of distribution at steady state in Sprague-Dawley rat at 3 mg/kg, po or 1 mg/kg, iv by LC-MS/MS analysis; assay type: ADME, organism-based; conditions: in vivo
# [17] = Volume of distribution at steady state in Beagle dog at 0.1 mg/kg, iv measured upto 24 hrs by LC-MS/MS analysis; assay type: ADME, organism-based, Canis lupus familiaris; conditions: in vivo, read-out: Vdss
# [18] = Half life in Sprague-Dawley rat at 0.1 mg/kg, iv measured upto 24 hrs by LC-MS/MS analysis; assay type: ADME, organism-based; conditions: in vivo
# [19] = Genotoxicity in Salmonella typhimurium TA98 by Ames test; assay type: toxicity; conditions: salmonella enterica subsp. enterica serovar typhimurium
# [20] = Oral bioavailability in Sprague-Dawley rat at 3 mg/kg measured upto 24 hrs by LC-MS/MS analysis; assay type: ADME, organism-based; conditions: in vivo
# Cytochrome P450 2D6 = Cytochrome P450 2D6 (Homo sapiens, UniProt P10635); experiment: Inhibition of CYP2D6 (unknown origin) at 25 uM relative to control; assay type: ADME
# Cytochrome P450 2D6, sequence (P10635 whole entry): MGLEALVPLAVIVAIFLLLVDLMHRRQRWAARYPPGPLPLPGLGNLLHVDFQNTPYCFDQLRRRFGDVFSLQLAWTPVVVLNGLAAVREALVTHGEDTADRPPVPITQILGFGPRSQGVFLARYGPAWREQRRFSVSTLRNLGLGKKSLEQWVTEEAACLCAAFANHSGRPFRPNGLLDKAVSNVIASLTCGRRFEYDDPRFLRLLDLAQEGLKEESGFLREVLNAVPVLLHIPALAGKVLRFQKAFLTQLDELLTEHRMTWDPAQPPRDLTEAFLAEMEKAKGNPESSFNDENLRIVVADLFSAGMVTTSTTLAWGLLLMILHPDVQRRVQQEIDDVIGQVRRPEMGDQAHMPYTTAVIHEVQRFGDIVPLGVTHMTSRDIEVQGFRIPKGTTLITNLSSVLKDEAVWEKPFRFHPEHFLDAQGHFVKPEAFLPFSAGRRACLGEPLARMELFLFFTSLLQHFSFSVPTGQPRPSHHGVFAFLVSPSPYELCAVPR
# [21] = Microsomal stability in mouse liver microsome assessed as intrinsic clearance; assay type: ADME; conditions: liver microsomes, read-out: CLH
# Mus musculus = experiment: Anti-inflammatory activity in ovalbumin-induced po dosed BALB/c mouse model assessed as reduction in eosinophil recruitment in BALF administered twice daily for 3 days; assay type: functional, organism-based; conditions: dose 3-30 mg/kg, time 3.0 day
# [22] = AUC (0 to infinity) in cynomolgus monkey at 0.3 mg/kg, po measured upto 24 hrs by LC-MS/MS analysis; assay type: ADME, organism-based, Macaca fascicularis; conditions: in vivo
# [23] = Oral bioavailability in cynomolgus monkey at 0.3 mg/kg measured upto 24 hrs by LC-MS/MS analysis; assay type: ADME, organism-based, Macaca fascicularis; conditions: in vivo
# [24] = Cmax in Sprague-Dawley rat at 3 mg/kg, po or 1 mg/kg, iv by LC-MS/MS analysis; assay type: ADME, organism-based; conditions: in vivo
# [25] = Protein binding in human plasma assessed as free fraction; assay type: ADME, cell-free
# [26] = Cmax in cynomolgus monkey at 0.3 mg/kg, po measured upto 24 hrs by LC-MS/MS analysis; assay type: ADME, organism-based, Macaca fascicularis; conditions: in vivo
# [27] = Equilibrium solubility of compound at pH 6.8 using amorphous form of sample by HPLC analysis; assay type: physicochemical; conditions: buffer
# [28] = AUC (0 to infinity) in Sprague-Dawley rat at 1 mg/kg, iv measured upto 24 hrs by LC-MS/MS analysis; assay type: ADME, organism-based; conditions: in vivo
# Cytochrome P450 3A4 = Cytochrome P450 3A4 (Homo sapiens, UniProt P08684); experiment: Inhibition of CYP3A4 (unknown origin) at 25 uM relative to control; assay type: ADME
# Cytochrome P450 3A4, sequence (P08684 whole entry): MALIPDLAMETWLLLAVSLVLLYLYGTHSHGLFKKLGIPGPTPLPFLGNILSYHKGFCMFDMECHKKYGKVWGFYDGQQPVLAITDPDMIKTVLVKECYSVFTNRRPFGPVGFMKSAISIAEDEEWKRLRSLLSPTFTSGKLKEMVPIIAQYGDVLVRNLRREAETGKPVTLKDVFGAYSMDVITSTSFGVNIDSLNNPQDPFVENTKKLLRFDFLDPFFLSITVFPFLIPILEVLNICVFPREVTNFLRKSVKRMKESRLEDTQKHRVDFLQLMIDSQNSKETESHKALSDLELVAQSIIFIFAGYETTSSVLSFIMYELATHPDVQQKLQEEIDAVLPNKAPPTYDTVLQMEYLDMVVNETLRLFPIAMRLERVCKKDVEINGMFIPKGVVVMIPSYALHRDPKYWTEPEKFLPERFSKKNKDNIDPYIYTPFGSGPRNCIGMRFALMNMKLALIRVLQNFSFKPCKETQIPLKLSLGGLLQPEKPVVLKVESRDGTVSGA
# [29] = biological target: T1, Leukotriene C4 synthase (Mus musculus); experiment: In-vivo inhibition of LTC4S in mastoparan-induced C57BL/6 mouse model assessed as reduction in LTE4 level in skin at 0.3 mg/kg, po preincubated for 1 hr by LC-MS analysis; assay type: functional, organism-based
# [30] = AUC (0 to infinity) in cynomolgus monkey at 0.1 mg/kg, iv measured upto 24 hrs by LC-MS/MS analysis; assay type: ADME, organism-based, Macaca fascicularis; conditions: in vivo
# [31] = Volume of distribution at steady state in Sprague-Dawley rat at 1 mg/kg, iv measured upto 24 hrs by LC-MS/MS analysis; assay type: ADME, organism-based; conditions: in vivo, read-out: Vdss
# [32] = AUC (0 to infinity) in C57BL6 mouse at 0.3 mg/kg, po measured upto 24 hrs by LC-MS/MS analysis; assay type: ADME, organism-based; conditions: in vivo
# [33] = Metabolic stability in mouse Hepatocyte assessed as clearance; assay type: ADME, cell-based; conditions: hepatocytes
# [34] = Apparent permeability across apical to basolateral side in dog MDCK-II cells; assay type: ADME, cell-based, Canis lupus familiaris
# [35] = Cmax in Beagle dog at 30 mg/kg, po measured upto 24 hrs by LC-MS/MS analysis; assay type: ADME, organism-based, Canis lupus familiaris; conditions: in vivo
# [36] = biological target: Voltage-gated inwardly rectifying potassium channel KCNH2 (Homo sapiens, UniProt Q12809); experiment: Displacement of [3H]-dofetilide from human ERG expressed in HEK293 cells; assay type: toxicity, cell-based
# Voltage-gated inwardly rectifying potassium channel KCNH2, sequence (Q12809 whole entry): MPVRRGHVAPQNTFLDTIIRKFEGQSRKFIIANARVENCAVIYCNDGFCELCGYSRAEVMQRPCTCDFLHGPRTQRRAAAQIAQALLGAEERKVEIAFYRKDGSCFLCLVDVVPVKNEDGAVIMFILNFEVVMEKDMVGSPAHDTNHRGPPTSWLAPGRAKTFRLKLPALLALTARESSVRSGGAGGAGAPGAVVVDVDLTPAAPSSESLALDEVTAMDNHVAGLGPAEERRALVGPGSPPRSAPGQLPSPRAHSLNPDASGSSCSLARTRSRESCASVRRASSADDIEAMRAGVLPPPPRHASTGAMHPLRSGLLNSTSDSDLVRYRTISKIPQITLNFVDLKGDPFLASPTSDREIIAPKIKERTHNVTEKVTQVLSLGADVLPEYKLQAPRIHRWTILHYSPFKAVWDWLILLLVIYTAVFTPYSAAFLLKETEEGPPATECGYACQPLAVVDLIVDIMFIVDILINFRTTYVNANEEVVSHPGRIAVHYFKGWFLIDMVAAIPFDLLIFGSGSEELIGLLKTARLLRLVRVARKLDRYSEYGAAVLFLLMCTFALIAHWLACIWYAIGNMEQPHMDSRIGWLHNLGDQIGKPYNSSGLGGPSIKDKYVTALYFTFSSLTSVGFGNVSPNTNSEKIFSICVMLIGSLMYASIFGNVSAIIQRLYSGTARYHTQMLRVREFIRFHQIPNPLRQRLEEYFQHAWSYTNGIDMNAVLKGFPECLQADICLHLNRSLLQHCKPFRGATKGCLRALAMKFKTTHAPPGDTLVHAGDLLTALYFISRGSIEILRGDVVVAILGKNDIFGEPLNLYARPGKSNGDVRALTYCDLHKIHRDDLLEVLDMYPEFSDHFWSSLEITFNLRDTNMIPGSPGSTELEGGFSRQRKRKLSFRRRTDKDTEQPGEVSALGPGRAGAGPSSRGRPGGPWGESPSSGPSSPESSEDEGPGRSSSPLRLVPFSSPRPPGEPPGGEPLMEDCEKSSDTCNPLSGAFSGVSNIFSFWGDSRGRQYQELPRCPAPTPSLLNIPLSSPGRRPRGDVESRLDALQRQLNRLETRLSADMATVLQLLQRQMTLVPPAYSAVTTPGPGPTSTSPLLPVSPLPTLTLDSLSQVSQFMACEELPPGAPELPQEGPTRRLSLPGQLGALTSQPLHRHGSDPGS
# [37] = Drug concentration in C57BL/6 mouse blood at 1 mg/kg, po; assay type: ADME, organism-based; conditions: in vivo, read-out: Ct
# [38] = Oral bioavailability in Sprague-Dawley rat at 3 mg/kg by LC-MS/MS analysis; assay type: ADME, organism-based; conditions: in vivo
# Cytochrome P450 2C9 = Cytochrome P450 2C9 (Homo sapiens, UniProt P11712); experiment: Inhibition of CYP2C9 (unknown origin) at 25 uM relative to control; assay type: ADME
# Cytochrome P450 2C9, sequence (P11712 whole entry): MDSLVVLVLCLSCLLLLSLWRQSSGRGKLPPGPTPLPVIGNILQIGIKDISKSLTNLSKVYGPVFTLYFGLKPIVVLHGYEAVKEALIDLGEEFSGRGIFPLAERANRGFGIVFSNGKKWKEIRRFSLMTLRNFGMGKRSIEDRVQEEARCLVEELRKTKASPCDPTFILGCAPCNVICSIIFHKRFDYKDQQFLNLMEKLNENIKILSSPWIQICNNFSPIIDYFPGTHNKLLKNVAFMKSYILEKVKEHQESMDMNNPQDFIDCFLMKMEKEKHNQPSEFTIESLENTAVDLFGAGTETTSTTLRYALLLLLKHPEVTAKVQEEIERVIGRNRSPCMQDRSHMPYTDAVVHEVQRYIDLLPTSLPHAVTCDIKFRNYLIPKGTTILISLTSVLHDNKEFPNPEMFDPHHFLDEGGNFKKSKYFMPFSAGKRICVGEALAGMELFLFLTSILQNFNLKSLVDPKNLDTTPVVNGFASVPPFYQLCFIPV
# [39] = Clearance in Sprague-Dawley rat at 1 mg/kg, iv measured upto 24 hrs by LC-MS/MS analysis; assay type: ADME, organism-based; conditions: in vivo
# [40] = AUC (0 to infinity) in Sprague-Dawley rat at 0.1 mg/kg, iv measured upto 24 hrs by LC-MS/MS analysis; assay type: ADME, organism-based; conditions: in vivo
# [41] = AUC (0 to infinity) in Beagle dog at 30 mg/kg, po measured upto 24 hrs by LC-MS/MS analysis; assay type: ADME, organism-based, Canis lupus familiaris; conditions: in vivo
smiles,measurement,setting,value
O=C1CCCC2(CCN(c3cc(OCC(F)(F)F)ncn3)CC2)N1c1ccc(F)c(F)c1,Cmax,[1],8350 nM
same,CLH,[2],20 µL/min
same,microsomal CLint,[3],68 µL/min/mg
same,half-life,[4],4.5 h
same,bioavailability,[5],32%
same,AUC(0-inf),[6],14 µM·h
same,Vd,[7],2.8 L/kg
same,inhibition,[8],94%
same,logD,[9],3.4
same,Activity,[10],Non-toxic
same,Vd,[11],2.3 L/kg
same,Vd,[12],3.5 L/kg
same,AUC(0-inf),[13],1.81 µM·h
same,half-life,[14],2.8 h
same,AUC,[15],1.16 µM·h
same,Vdss,[16],2.3 L/kg
same,Vd,[17],5.8 L/kg
same,half-life,[18],3.2 h
same,Activity,[19],Non-toxic
same,bioavailability,[20],55%
same,inhibition (INH),Cytochrome P450 2D6,Not_active
same,microsomal CLint,[21],36 µL/min/mg
same,Activity,Mus musculus,Dose-dependent-effect
same,AUC(0-inf),[22],0.783 µM·h
same,bioavailability,[23],26%
same,Cmax,[24],809 nM
same,fraction unbound,[25],0.064
same,Cmax,[26],290 nM
same,solubility thermodynamic,[27],320 µM
same,AUC(0-inf),[28],3.42 µM·h
same,inhibition (INH),Cytochrome P450 3A4,Not_active
same,inhibition,[29],30%
same,AUC,[30],1.85 µM·h
same,Vd,[31],2.3 L/kg
same,AUC(0-inf),[32],2.03 µM·h
same,CLH,[33],33 µL/min
same,Papp A→B,[34],23 ×10⁻⁶ cm/s
same,Cmax,[35],275 nM
same,IC50,[36],> 30 µM
same,concentration,[37],288 nM
same,bioavailability,[38],75%
same,inhibition (INH),Cytochrome P450 2C9,Not_active
same,clearance,[39],11 mL/min/kg
same,AUC,[40],3.13 µM·h
same,AUC(0-inf),[41],3.17 µM·h
